{"source": "patent US8815892B2", "about": "“P2X7R antagonists and their use” (Affectis Pharmaceuticals AG, priority 2008, dated 2014)", "key": {"[1]": {"system": "LPA-induced neuropathic pain in C57/Bl6 mice", "assay": "Lysophosphatidic acid (LPA)-induced neuropathy, mechanical hyperalgesia (digital Randall-Selitto)", "assay_type": "in vivo, mouse", "conditions": "1 hour after dosing", "procedure": "The therapeutic effects of the compounds of the present invention were assessed in the lysophosphatidic acid (LPA)-induced neuropathy in mice. This model is commonly used to evaluate the potential analgesic activity of compounds designed to treat neuropathic pain in humans (Inoue et al. (2004) Nat Med 10: 712-718; Inoue et al. (2008). Mol Pain 4(6) doi:10.1186/1744-8069-4-6). In this example, a representative compound of the invention, 4-chloro-N-(cycloheptylmethyl)-1-(2-hydroxyethyl)-1H-indole-3-carboxamide (Example 54), was tested.\nNeuropathic pain was induced in male, C57/Bl6 mice (Harlan) by an intrathecal injection of 1 nmol LPA (prepared in saline; ENZO) in a 5 μL volume into the spinal cord. Pre-LPA injection, post-LPA injection and post-treatment values for mechanical hyperalgesia were evaluated using a digital Randall-Selitto device (dRS; IITC Life Sciences). Paw compression threshold was measured once at each time point for the left and right paws. […] The readings from the left and right paws were averaged at each time point. […]\nVehicle (0.5% carboxymethylcellulose (CMC)) or between 125-500 mg/kg of a compound of the present invention (dissolved in 0.5% CMC) were administered via oral gavage two days after LPA injection. […] If a significant main effect was detected, Dunnetts' post hoc test was used to compare treatment to vehicle treated animals. […]"}, "EAE in SJL mice": {"system": "EAE in SJL mice", "assay": "Relapsing-remitting experimental autoimmune encephalomyelitis (EAE), PLP139-151/CFA model of multiple sclerosis", "assay_type": "in vivo, mouse", "conditions": "SJL female mice", "procedure": "The therapeutic effects of the compounds of the present invention were assessed in a mouse model of relapsing-remitting multiple sclerosis MS. The relapsing-remitting experimental autoimmune encephalomyelitis (EAE) which develops in SJL mice after immunization with the Proteolipid Protein PLP139-151 and Complete Freund's Adjuvant (CFA) is the mouse model which most closely resembles human remitting/relapsing MS (see Webb et al (2004) J Neuroimmunol 153:108-121). In this example, a representative compound of the invention, 4-chloro-N-(cycloheptylmethyl)-1-(2-hydroxyethyl)-1H-indole-3-carboxamide (Example 54), was tested.\nEAE was induced in SJL female mice (Jackson Labs), using a PLP139-151/CFA Emulsion (Hooke Laboratories, Lawrence Mass.) according to the manufacturer's recommended protocol. Mice were injected subcutaneously at four sites (0.05 mL at each site) in the back with the emulsion. Two sites of injection were in the area of the upper back, approximately 1 cm caudal of the neck line. The other two sites were in the area of the lower back, approximately 2 cm cranial of the base of the tail. Individual animals were then examined daily for clinical signs of neurological deficits scored on a 0 to 5 scale as follows: 0, no abnormality; 0.5, stiff tail; 1, limp tail; 1.5, limp tail with inability to right; 2, paralysis of one limb; 2.5, paralysis of one limb and weakness of one other limb; 3, complete paralysis of both hind limbs; 4, moribund; 5, death. Daily scoring for signs of EAE started on Day 7 after immunization with the first symptoms observed between Days 11 and 15 after immunization. Treatment for each animal began on the second day that the animal developed EAE symptoms. […] The effect of treatment on development of EAE relapses was evaluated by comparing incidence and severity of relapses, and the end scores between the compound-treated groups and the vehicle group. Incidence of relapse were compared using two-tailed Fisher's exact test and the end scores between vehicle and treatment groups were calculated using Wilcoxon's non-parametric test. […]"}}}
{"smiles": "NCC1(CC(=O)O)CCCCC1", "note": "[gabapentin, reference compound]", "values": [{"measurement": "mechanical hyperalgesia (paw compression thresholds) compared to pre-treatment baseline", "setting": "[1]; 100 mg/kg intraperitoneal two days after LPA injection", "result": "slight decrease in mechanical hyperalgesia"}]}
{"smiles": "O=C(NCC1CCCCCC1)c1cn(CCO)c2cccc(Cl)c12", "note": "[Example 54, 4-chloro-N-(cycloheptylmethyl)-1-(2-hydroxyethyl)-1H-indole-3-carboxamide]", "values": [{"measurement": "mean paw compression thresholds compared to pre-treatment baseline", "setting": "[1]; 125-500 mg/kg oral gavage two days after LPA injection, p<0.05", "result": "significantly increased mean paw compression thresholds"}, {"measurement": "treated animals that developed relapses", "setting": "EAE in SJL mice; 125 to 500 mg/kg twice daily oral gavage from second day of EAE symptoms, vehicle 50.0%, p=0.0038", "result": 6, "unit": "%"}, {"measurement": "average EAE score on Day 40 (end of the study)", "setting": "EAE in SJL mice; 125 to 500 mg/kg twice daily oral gavage, 0 to 5 scale, vehicle 1.34, p=0.0021", "result": 0.50}, {"measurement": "day of relapse (the one mouse of the group that relapsed)", "setting": "EAE in SJL mice; 125 to 500 mg/kg twice daily oral gavage, vehicle mean day of relapse 22, delay p=0.0039", "result": 40, "unit": "days"}]}
